The source of these data is paper PMC7982426 (Acta Pharmaceutica Sinica. B, 2020).

The target in the experiment is G protein-coupled receptor 35 (GPR35) (Homo sapiens, UniProt Q9HC97). In words: GPR35 internalization by flow cytometry in NCM460 cells. The experiment is classed as cell-based. (In flow cytometry, cells or beads pass a laser one at a time.)
Sequence of G protein-coupled receptor 35 (GPR35) (Q9HC97 whole entry): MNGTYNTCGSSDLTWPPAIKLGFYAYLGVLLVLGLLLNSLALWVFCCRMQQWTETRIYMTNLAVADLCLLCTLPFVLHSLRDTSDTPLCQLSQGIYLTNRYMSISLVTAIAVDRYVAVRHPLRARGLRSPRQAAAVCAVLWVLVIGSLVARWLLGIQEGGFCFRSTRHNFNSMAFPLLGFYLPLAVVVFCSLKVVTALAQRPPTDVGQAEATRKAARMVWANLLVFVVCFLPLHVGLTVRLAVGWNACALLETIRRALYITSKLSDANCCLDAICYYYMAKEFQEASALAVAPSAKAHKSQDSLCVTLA

On to `O=C(O)c1cc(=O)c2ccccc2[nH]1` [KA, kynurenic acid], for which the EC50 came out at 46.2 µM. That is a double-digit micromolar value.

Broadly, the EC50 is the concentration that produces a half-maximal response.
